Values quoted from earlier work as cited in patent US20250009771A1, “PHARMACEUTICAL COMPOSITION FOR TREATING COLORECTAL CANCER, INCLUDING TUMOR-TARGETED LIPOSOMES CONTAINING PLATYCODIN D2” (INDUSTRY-UNIVERSITY COOPERATION FOUNDATION HANYANG …, priority 2023, published 2025).

Tests used:
BCL-XL = biological target: T1, BCL-XL (Homo sapiens, UniProt Q07817); conditions: cited from earlier work
T1 construct: host or cells: adenomas and tumor organoids (endogenous protein)

[1] = slightly acidic pH; cited from earlier work

T1 sequence (Q07817 whole entry, species assumed): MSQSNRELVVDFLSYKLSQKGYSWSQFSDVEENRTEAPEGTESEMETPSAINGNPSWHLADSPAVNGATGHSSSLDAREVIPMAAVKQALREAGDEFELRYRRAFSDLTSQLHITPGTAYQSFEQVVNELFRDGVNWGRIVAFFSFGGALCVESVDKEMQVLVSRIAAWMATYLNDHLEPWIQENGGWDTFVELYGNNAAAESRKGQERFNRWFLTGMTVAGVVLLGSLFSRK

Compound | clonogenic potential of adenomas and tumor organoids (BCL-XL) | pK of insertion into the cell membrane [1]
CN(C)CC#Cc1ccc(OCCCc2sc(N3CCc4cccc(C(=O)Nc5nc6ccccc6s5)c4C3)nc2C(=O)O)c(F)c1 [A-1155463] | significantly impaired | 
GLAGLAGLLGLEGLLGLPLGLLEGLWLGLELEGN [ATRAM, pH-responsive acidity-triggered rational membrane peptide] |  | 6.5
